Results as given in patent US12514843B2, “Biofilm disruption” (QBIOTICS PTY LTD, priority 2019, dated 2026).

Tests used:
E. coli IR57 biofilm [1] = assay: Disruption of established in vitro biofilm, CLSM with COMSTAT image analysis; type: cell-based, Escherichia coli; details: E. coli IR57 24 h biofilm, 256 μg/mL, further 24 h; vs untreated and ethanol blank controls
Procedure: The effects of administration of Compounds 1, 4 and 6 and comparator compound CC-1 on disruption of established in vitro biofilms of Escherichia coli (E. coli) was investigated using methods described in Powell et al. (2018).
(§1) Biofilms of E. coli IR57 were grown on 96-well glass-bottomed plates in Mueller-Hinton (MH) broth for 24 h, before 50% of the supernatant was replaced with fresh MH broth with or without the epoxytiglienone compound added to a final concentration of 256 μg/mL (vehicle is ethanol). An ethanol equivalent blank was used as a further control treatment. The plates were then incubated for a further 24 h at 37° C.
(§2) Confocal laser scanning microscopy (CLSM) was then used to image the biofilms, following staining with Live/Dead® Baclight stain with phosphate buffered saline (PBS) added to each well before imaging with z-stack CLSM. The resultant images were analysed by COMSTAT software to produce measurements of (i) biofilm biomass volume or bio-volume (μm^3/μm^2) and (ii) DEAD/LIVE bacterial ratio.

E. coli IR57 biofilm [2] = assay: Multiple particle tracking (MPT) of 200 nm FluoSpheres in established biofilm; type: cell-based, Escherichia coli
Procedure: The effect of three epoxytiglienones (Compounds 1, 4 and 6) on the assembly and permeability of established biofilms of E. coli was assessed using multiple particle tracking (MPT). MPT is a recently described technique, allowing simultaneous tracking of micron-size particles through biofilms using microscopy, from which the diffusion-based parameters of embedded particles within the extracellular polymeric matrix (EPS) of the biofilm can be determined (Cao et al. 2016). MPT measurements also allows for calculation of micro-rheological properties of the biofilm structure following treatment with test compounds.
E. coli biofilms were established and epoxytiglienone and control treatments applied as described in Example 2 above. Twenty-four hours after application of the treatments, the biofilms were stained with SYTO9® and 0.0025% of negatively-charged, carboxylate-modified FluoSpheres® (200 nm) added onto the biofilms and incubated for a further 2 hours. FluoSphere® particle movements within the biofilms were then captured on video using epifluorescence microscopy with a high frame-rate camera (33 ms). Particle trajectories were tracked using ImageJ softwaren (Mosaic) before calculation of three parameters of the 200 nm FluoSphere® particles: (i) ensemble diffusion coefficient (Deff), (ii) ensemble mean squared displacement (MSD) and (iii) creep compliance (a measure of resistance to mechanical deformation derived from the MSD vs lag time). Each treatment was replicated three times.

[3] = test system: A. baumannii 7789 biofilm; assay: Disruption of established in vitro biofilm, CLSM with COMSTAT image analysis; type: cell-based, Acinetobacter baumannii; details: 256 μg/mL
Procedure: as §1, §2
The effects of the epoxytiglienones (Compounds 1, 4, 6 and the comparator compound CC-1) on disruption of established in vitro biofilms were further investigated with two other species of Gram-negative bacteria (Pseudomonas aeruginosa PA01 and Acinetobacter baumannii 7789) using methods described in Example 2 above. Cell permeabilisation following Compound 1, 4 and 6 treatment was also determined using SYTOX™ Green Nucleic Acid Stain with untreated control and positive control of 70% isopropanol.

[4] = test system: chronic biofilm infection; assay: Diabetic murine model of chronic biofilm infection (excisional wound); type: in vivo, db/db diabetic mice; details: 0.3 mg/mL in hydrogel, topical at 24 h, 8 and 15 days; assessed day 21 to 28 post wounding; 7 mice
Description: The effects of administration of Compound 4 on biofilm infection in vivo was studied in a diabetic murine model of chronic biofilm infection (Zhao et al. 2010). In this study we used methods described by Dhall et al. (2014) in which bacterial biofilm infections develop spontaneously following wound creation.
Briefly, db/db diabetic mice (>6 months old) were housed for 4-5 weeks in non-sterile conditions prior to the creation of wound on the back of each mouse with a 6 mm diameter excisional punch biopsy. Mice were then administered a catalase inhibitor intra-peritoneally (1 g/kg aminotriazole) and a glutathione peroxidase (GPx) inhibitor topically around the edge of the wound site (1 g/kg mercaptosuccinic acid) prior to dressing with Tegaderm. After 24 h, biofilms were evident at the wound site on all mice. The mice where divided into two groups (7 mice per group) and treated with either Compound 4 (0.3 mg/mL in a hydrogel vehicle) or a Control treatment (hydrogel vehicle only). The Tegaderm dressing was the then replaced. Two further administrations of Compound 4 or the Control (vehicle only) were performed at 8 and 15 days. No antibiotics or other antibacterial treatments were applied during the study.
The presence of biofilm and the surface area of the wound were assessed over the course of the study. […]

[5] = test system: isolated human neutrophils; assay: NETosis/necrosis assay, Hoescht/Sytox Green fluorescence; type: cell-based
Procedure: For these assays, neutrophils were isolated from fresh blood of a healthy human donor by lysis of a red blood cell pellet that had been obtained by Ficoll-Paque sedimentation. The neutrophils (˜4×10^6 cells/mL) were incubated with 10 μg/mL dihydroethidium (DHE) (Sigma-Aldrich) in complete culture medium at 37° C. for 15 min alongside an aliquot of unstained cells to be tested as unstained control.
NETosis/necrosis assays followed methods fully described by Brinkmann et al. 2010. Isolated neutrophils were plated into 96-well plates (RPMI1640, 10% FCS) and incubated with a 1:50,000 dilution of Hoescht (10 mg/mL) and Sytox® Green (5 mM). Compound 4 was added at six concentrations (0.005, 0.05, 0.5. 5, 50, 500 μM) and the cells incubated at 37° C., 5% CO2. Vehicle treated controls were included in all assays and there were three replicates of each assay. Hoescht/Sytox® Green fluorescence images were recorded for each well at 3 and 6 hours.

SMILES: CCCCCC(=O)OC1C(C)C2(O)C(C3OC3(CO)C(O)C3(O)C(=O)C(C)=CC32)C2C(C)(C)C12OC(=O)CCCCC (stereo not drawn) [Compound 4, 12,13-dihexanoyl-6,7-epoxy-4,5,9,12,13,20-hexahydroxy-1-tiglien-3-one]
- biofilm bio-volume (COMSTAT) (E. coli IR57 biofilm [1]): Decreases in bio-volume were evident
- distribution and density of bacteria in the biofilm (CLSM) (E. coli IR57 biofilm [1]): significant changes
- Diffusion coefficient (Deff) ± standard deviation (E. coli IR57 biofilm [2]; 200 nm negatively-charged carboxylate-modified FluoSpheres in E. coli IR57 biofilms, 256 μg/mL, 24 h treatment): 0.8449 ± 0.1250 cm^2 · s^−1 × 10^−9
- mean squared displacement (MSD) of FluoSphere particles (E. coli IR57 biofilm [2]; E. coli IR57 biofilm, 200 nm FluoSpheres, vs untreated and ethanol blank controls): substantially higher
- biofilm creep compliance (E. coli IR57 biofilm [2]; E. coli IR57 biofilm, derived from MSD vs lag time, vs untreated and ethanol blank controls): increased
- DEAD/LIVE bacterial ratio ([3]; vs untreated and ethanol blank controls): no significant differences
- biofilm bio-volume (COMSTAT) ([3]; vs untreated and ethanol blank controls (p<0.05)): significant reductions
- mice with complete wound healing (complete re-epithelialisation, resolution of inflammation, absence of bacteria within the dermis) [4]: 6 of the 7
- chromatin appearance in neutrophils (more diffuse) ([5]; 50 μM): NETosis has occurred
- chromatin appearance in neutrophils (condensed) ([5]; 500 μM): necrosis has occurred
- NETosis and necrosis of neutrophils ([5]; 3 hours after treatment, 50 μM and 500 μM): initially observed
- NETosis and necrosis of neutrophils ([5]; 6 hours, four lower concentrations 0.005 μM-5 μM): evident
